Experimental data: patent publication US20260250318A1, “COMPOSITIONS AND METHODS FOR CROSSING THE BLOOD BRAIN BARRIER” (VOYAGER THERAPEUTICS, INC., priority 2022, published 2026)

Key:
[1] = tested on: brain; assay: Matured TTM-001 and TTM-002 variants, NGS enrichment in mouse brain; type: in vivo, mice; settings: relative to AAV9 control
[2] = tested on: brains, heart, liver, muscle, and DRG of the NHPs; assay: Maturation of TTM-001 and TTM-002 capsids, NGS enrichment in NHP tissues; type: in vivo; settings: relative to AAV9 control
In short: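 Variants carry mutations within and flanking the loop IV peptide insert: positions 450–466 were triplet-randomized, while positions 449–466 received low-frequency point mutations. The combined pool went into two NHPs, and each peptide was scored by NGS enrichment ratio against AAV9.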

[3] = NGS fold-enrichment, mouse brain
[4] = NGS fold-enrichment of RNA, NHP brain
[5] = NGS fold-enrichment, NHP liver DNA
[6] = NGS fold-enrichment, NHP liver RNA
[7] = NGS fold-enrichment, NHP muscle
[8] = NGS fold-enrichment of matured AAV capsid variants, NHP brain, RNA
[9] = NGS fold-enrichment, brain of mice
[10] = NGS fold-enrichment, DRG of NHPs
[11] = NGS fold-enrichment, RNA, brain of NHPs
[12] = NGS fold-enrichment, heart of NHPs
[13] = NGS fold-enrichment, liver DNA of NHPs
[14] = NGS fold-enrichment, liver RNA of NHPs
[15] = NGS fold-enrichment, muscle of NHPs

Sequence: KSINGHDSPHKSGQYQHT
- Fold Enrichment relative to AAV9, Brain (Mouse) [1, 3]: 14.485 fold
- Fold Enrichment relative to AAV9, Brain (NHP) [2, 4]: 88.195 fold
- Fold Enrichment relative to AAV9, DRG (NHP) ([2]; NGS fold-enrichment, NHP DRG): 0.000 fold
- Fold Enrichment relative to AAV9, Heart (NHP) ([2]; NGS fold-enrichment, NHP heart): 0.099 fold
- Fold Enrichment relative to AAV9, Liver DNA (NHP) [2, 5]: 0.149 fold
- Fold Enrichment relative to AAV9, Liver RNA (NHP) [2, 6]: 0.000 fold
- Fold Enrichment relative to AAV9, Muscle (NHP) [2, 7]: 0.000 fold

Sequence: KSINGSGSPHSKAPNLQT
- Fold Enrichment relative to AAV9, Brain (Mouse) ([1]; mouse brain): 59.270 fold
- Fold Enrichment relative to AAV9, Brain (NHP) [2, 8]: 51.812 fold
- Fold Enrichment relative to AAV9, DRG (NHP) ([2]; NHP DRG): 0.000 fold
- Fold Enrichment relative to AAV9, Heart (NHP) ([2]; NHP heart): 0.256 fold
- Fold Enrichment relative to AAV9, Liver DNA (NHP) ([2]; NHP liver, DNA): 0.139 fold
- Fold Enrichment relative to AAV9, Liver RNA (NHP) ([2]; NHP liver, RNA): 0.085 fold
- Fold Enrichment relative to AAV9, Muscle (NHP) ([2]; NHP muscle): 0.000 fold

Sequence: KSINGSGSPHSKAQAQQT
- Fold Enrichment relative to AAV9, Brain (Mouse) [1, 9]: 78.451 fold
- Fold Enrichment relative to AAV9, DRG (NHP) [2, 10]: 0.000 fold
- Fold Enrichment relative to AAV9, Brain (NHP) [2, 11]: 66.464 fold
- Fold Enrichment relative to AAV9, Heart (NHP) [2, 12]: 0.711 fold
- Fold Enrichment relative to AAV9, Liver DNA (NHP) [2, 13]: 0.111 fold
- Fold Enrichment relative to AAV9, Liver RNA (NHP) [2, 14]: 0.148 fold
- Fold Enrichment relative to AAV9, Muscle (NHP) [2, 15]: 0.000 fold

Sequence: KSINGSGSPHSKTQSQQT
- Fold Enrichment relative to AAV9, Brain (Mouse) ([1]; mouse brain): 71.397 fold
- Fold Enrichment relative to AAV9, Brain (NHP) [2, 8]: 58.608 fold
- Fold Enrichment relative to AAV9, DRG (NHP) ([2]; NHP DRG): 0.000 fold
- Fold Enrichment relative to AAV9, Heart (NHP) ([2]; NHP heart): 3.017 fold
- Fold Enrichment relative to AAV9, Liver DNA (NHP) ([2]; NHP liver, DNA): 0.017 fold
- Fold Enrichment relative to AAV9, Liver RNA (NHP) ([2]; NHP liver, RNA): 0.155 fold
- Fold Enrichment relative to AAV9, Muscle (NHP) ([2]; NHP muscle): 0.000 fold

Sequence: KSINGYDSPHKSGQTQQT
- Fold Enrichment relative to AAV9, Brain (Mouse) [1, 3]: 4.497 fold
- Fold Enrichment relative to AAV9, Brain (NHP) [2, 4]: 79.227 fold
- Fold Enrichment relative to AAV9, DRG (NHP) ([2]; NGS fold-enrichment, NHP DRG): 1.817 fold
- Fold Enrichment relative to AAV9, Heart (NHP) ([2]; NGS fold-enrichment, NHP heart): 0.226 fold
- Fold Enrichment relative to AAV9, Liver DNA (NHP) [2, 5]: 1.148 fold
- Fold Enrichment relative to AAV9, Liver RNA (NHP) [2, 6]: 0.000 fold
- Fold Enrichment relative to AAV9, Muscle (NHP) [2, 7]: 0.000 fold

Sequence: KSIYGHESPHKSGQNQQS
- Fold Enrichment relative to AAV9, Brain (Mouse) [1, 3]: 8.064 fold
- Fold Enrichment relative to AAV9, Brain (NHP) [2, 4]: 90.947 fold
- Fold Enrichment relative to AAV9, DRG (NHP) ([2]; NGS fold-enrichment, NHP DRG): 0.817 fold
- Fold Enrichment relative to AAV9, Heart (NHP) ([2]; NGS fold-enrichment, NHP heart): 0.310 fold
- Fold Enrichment relative to AAV9, Liver DNA (NHP) [2, 5]: 0.243 fold
- Fold Enrichment relative to AAV9, Liver RNA (NHP) [2, 6]: 0.000 fold
- Fold Enrichment relative to AAV9, Muscle (NHP) [2, 7]: 0.000 fold

Sequence: KSLNGSGSPHTKAQNQQT
- Fold Enrichment relative to AAV9, Brain (Mouse) [1, 3]: 45.140 fold
- Fold Enrichment relative to AAV9, Brain (NHP) [2, 4]: 81.515 fold
- Fold Enrichment relative to AAV9, DRG (NHP) ([2]; NGS fold-enrichment, NHP DRG): 0.197 fold
- Fold Enrichment relative to AAV9, Heart (NHP) ([2]; NGS fold-enrichment, NHP heart): 0.333 fold
- Fold Enrichment relative to AAV9, Liver DNA (NHP) [2, 5]: 0.085 fold
- Fold Enrichment relative to AAV9, Liver RNA (NHP) [2, 6]: 0.000 fold
- Fold Enrichment relative to AAV9, Muscle (NHP) [2, 7]: 0.000 fold

Sequence: KSVNGNGSPHSKAQNQQT
- Fold Enrichment relative to AAV9, Brain (Mouse) [1, 9]: 51.016 fold
- Fold Enrichment relative to AAV9, Brain (Mouse) [1, 3]: 51.016 fold
- Fold Enrichment relative to AAV9, Brain (NHP) [2, 4]: 99.385 fold
- Fold Enrichment relative to AAV9, DRG (NHP) [2, 10]: 0.000 fold
- Fold Enrichment relative to AAV9, DRG (NHP) ([2]; NGS fold-enrichment, NHP DRG): 0.000 fold
- Fold Enrichment relative to AAV9, Heart (NHP) ([2]; NGS fold-enrichment, NHP heart): 1.329 fold
- Fold Enrichment relative to AAV9, Liver DNA (NHP) [2, 5]: 0.079 fold
- Fold Enrichment relative to AAV9, Liver RNA (NHP) [2, 6]: 0.359 fold
- Fold Enrichment relative to AAV9, Muscle (NHP) [2, 7]: 0.000 fold
- Fold Enrichment relative to AAV9, Brain (NHP) [2, 11]: 99.385 fold
- Fold Enrichment relative to AAV9, Heart (NHP) [2, 12]: 1.329 fold
- Fold Enrichment relative to AAV9, Liver DNA (NHP) [2, 13]: 0.079 fold
- Fold Enrichment relative to AAV9, Liver RNA (NHP) [2, 14]: 0.359 fold
- Fold Enrichment relative to AAV9, Muscle (NHP) [2, 15]: 0.000 fold

Sequence: KTANGSGSPHSKAQYQQT
- Fold Enrichment relative to AAV9, Brain (Mouse) [1, 9]: 139.451 fold
- Fold Enrichment relative to AAV9, DRG (NHP) [2, 10]: 0.000 fold
- Fold Enrichment relative to AAV9, Brain (NHP) [2, 11]: 73.038 fold
- Fold Enrichment relative to AAV9, Heart (NHP) [2, 12]: 0.000 fold
- Fold Enrichment relative to AAV9, Liver DNA (NHP) [2, 13]: 0.160 fold
- Fold Enrichment relative to AAV9, Liver RNA (NHP) [2, 14]: 0.153 fold
- Fold Enrichment relative to AAV9, Muscle (NHP) [2, 15]: 0.000 fold

Sequence: KTCNASGSPHSKAQNQQT
- Fold Enrichment relative to AAV9, Brain (Mouse) ([1]; mouse brain): 67.934 fold
- Fold Enrichment relative to AAV9, Brain (NHP) [2, 8]: 52.998 fold
- Fold Enrichment relative to AAV9, DRG (NHP) ([2]; NHP DRG): 0.000 fold
- Fold Enrichment relative to AAV9, Heart (NHP) ([2]; NHP heart): 0.011 fold
- Fold Enrichment relative to AAV9, Liver DNA (NHP) ([2]; NHP liver, DNA): 0.141 fold
- Fold Enrichment relative to AAV9, Liver RNA (NHP) ([2]; NHP liver, RNA): 0.897 fold
- Fold Enrichment relative to AAV9, Muscle (NHP) ([2]; NHP muscle): 0.000 fold
